Results from the NIST ThermoML archive (doi:10.1016/j.jct.2008.09.002).

Experiments:
[1] = molar heat capacity at constant pressure; conditions: 101.33 kPa, Liquid, Small sample (50 mg) DSC
[2] = 101.33 kPa, Liquid; for speed of sound: Anton-Paar DSA48 sound analyzer; for mass density: Vibrating tube method
[3] = excess molar enthalpy (molar enthalpy of mixing); xn = mol fraction of the nth substance listed; conditions: 303.15 K, 101.3 kPa, Liquid, Calvet calorimetry

CCCCn1cc[n+](C)c1.COS(=O)(=O)[O-] [1-butyl-3-methylimidazolium methyl sulfate]
Conditions	mass density, [2] [kg/m3]	molar heat capacity at constant pressure, [1] [J/K/mol]	speed of sound, [2] [m/s]
293.15 K	1210.7	413.7	1670.9
298.15 K	1207.4	416.2	1658.4
303.15 K	1204.1	418.5	1646
308.15 K	1200.8	420.9	1633.5
313.15 K	1197.5	423.3	1621.1
318.15 K	1194.2	425.6	1608.6

CCCCn1cc[n+](C)c1.F[B-](F)(F)F [1-butyl-3-methylimidazolium tetrafluoroborate]
Conditions	mass density, [2] [kg/m3]	molar heat capacity at constant pressure, [1] [J/K/mol]	speed of sound, [2] [m/s]
293.15 K	1207.6	359.8	1594.9
298.15 K	1204.1	363.1	1576.1
303.15 K	1200.5	366.1	1555.5
308.15 K	1197	368.7	1543.9
313.15 K	1193.4	371	1532.5
318.15 K	1189.9	372.9	1521.2

CCCCn1cc[n+](C)c1.O=S(=O)([O-])C(F)(F)F [1-butyl-3-methylimidazolium trifluoromethanesulfonate]
Conditions	mass density, [2] [kg/m3]	molar heat capacity at constant pressure, [1] [J/K/mol]	speed of sound, [2] [m/s]
293.15 K	1301.6	421.6	1403.4
298.15 K	1297.6	424.1	1392.1
303.15 K	1293.7	426.7	1380.9
308.15 K	1289.7	429.5	1369.8
313.15 K	1285.8	432.4	1358.8
318.15 K	1281.9	435.5	1348.1

CCCC[n+]1cccc(C)c1.F[B-](F)(F)F [1-butyl-3-methylpyridinium tetrafluoroborate]
[2]
Conditions	speed of sound [m/s]
293.15 K	1599.8
298.15 K	1587
303.15 K	1574.8
308.15 K	1562.6
313.15 K	1550.7
318.15 K	1538.9

CCOS(=O)(=O)[O-].CCn1cc[n+](C)c1 [1-ethyl-3-methylimidazolium ethyl sulfate]
Conditions	mass density, [2] [kg/m3]	molar heat capacity at constant pressure, [1] [J/K/mol]	speed of sound, [2] [m/s]
293.15 K	1240.6	392.2	1691.4
298.15 K	1237.2	394.4	1679
303.15 K	1233.8	396.8	1666.6
308.15 K	1230.4	399.3	1654
313.15 K	1227	402	1641.6
318.15 K	1223.7	404.9	1629.2

CCn1cc[n+](C)c1.O=S(=O)([O-])C(F)(F)F [1-ethyl-3-methylimidazolium trifluoromethanesulfonate]
Conditions	mass density, [2] [kg/m3]	molar heat capacity at constant pressure, [1] [J/K/mol]	speed of sound, [2] [m/s]
293.15 K	1389.5	361.1	1447
298.15 K	1385.3	363.2	1435.6
303.15 K	1381.1	365.3	1424.3
308.15 K	1376.9	367.4	1413.1
313.15 K	1372.7	369.6	1402.1
318.15 K	1368.6	371.8	1391.1

CCCCCCn1cc[n+](C)c1.F[B-](F)(F)F [1-hexyl-3-methylimidazolium tetrafluoroborate]
Conditions	mass density, [2] [kg/m3]	molar heat capacity at constant pressure, [1] [J/K/mol]	speed of sound, [2] [m/s]
293.15 K	1148.8	425.1	1532.7
298.15 K	1145.3	427.8	1519.5
303.15 K	1141.8	430.4	1506.9
308.15 K	1138.4	433	1494.5
313.15 K	1135	435.5	1482.3
318.15 K	1131.6	438.1	1470.5

C[N+](=O)[O-] [nitromethane]
Conditions	mass density, [2] [kg/m3]	molar heat capacity at constant pressure, [1] [J/K/mol]	speed of sound, [2] [m/s]
293.15 K	1140.2	106.6	1339.6
298.15 K	1133.4	106.9	1320.1
303.15 K	1126.6	107.3	1300.5
308.15 K	1119.7	107.7	1280.7
313.15 K	1112.9	108.2	1261.1
318.15 K	1106	108.6	1241.6

C[N+](=O)[O-] [nitromethane] + CCCC[n+]1cccc(C)c1.F[B-](F)(F)F
[3]
Conditions	excess molar enthalpy [kcal/mol]
x2 = 0.0992	-0.0602
x2 = 0.1547	-0.0784
x2 = 0.1998	-0.0958
x2 = 0.3029	-0.106
x2 = 0.3978	-0.114
x2 = 0.4973	-0.112
x2 = 0.6053	-0.0946
x2 = 0.7038	-0.0803
x2 = 0.795	-0.0557
x2 = 0.8525	-0.0387
